Columns and labels:
HR+ BC PDX models = test: HR+ breast cancer patient-derived xenograft models; assay type: in vivo, mice; conditions: for % TGI: 3 mg/kg q7dx3, vs untreated
Protocol: Specifically, Stock mice were bilaterally implanted with fragments from one of the Champions TumorGraft® models representing human HR^+ BC or ovarian cancer. After the tumors reached 1000-1500 mm^3, they were harvested, and the tumor fragments were implanted subcutaneously (s.c.) in the left flank of the female study mice. Each animal was implanted with a specific passage lot and documented. Tumor growth was monitored twice a week using digital calipers, and the tumor volume (TV) was calculated using the formula (0.52×[length×width^2]). When the TV reached approximately 150-300 mm^3, animals were matched by tumor size and assigned into control (untreated) or treatment groups (n=3 animals/group). Each animal in the treatment groups was dosed with 3 mg/kg of ADC every seven days for three total doses (q7dx3). […]
Inhibition of tumor growth was determined by calculating the percent TGI on the day at which animals in the control group were terminated (100%×[1−(final MTV−initial MTV of a treated group)/(final MTV−initial MTV of the control group)]). Treatment started on Day 0.

MX-1 xenograft model = test: MX-1 xenograft, Study MX1-2; assay type: in vivo, SCID mice; conditions: 3 mg/kg, three weekly doses, i.p.
Protocol: Tumor volume was measured twice weekly until study day 84.
Female SCID mice were implanted with 5×10^5 MX1 tumor cells in 25% Matrigel H C (Corning #354248) subcutaneously. Once tumor volumes reached 100 mm^3, mice were randomized into treatment groups of 5 mice each and dosed with 3 mg/kg of ADC every seven days for three total doses (q7dx3). Tumor volumes were measured twice per week, and animals were euthanized when tumor volume reached 700-1000 mm^3. Stock concentrations of ADC were diluted to a desired concentration (with 0.01% Tween20 in PBS) and injected i.p. into each treatment group.

[1] = test system: B7-H4 expression on OVCAR3 tumors; test: IHC of B7-H4 on treated OVCAR3 xenograft tumors; assay type: in vivo, SCID mice; conditions: OVCAR3 tumors after treatment
Protocol: Antigen retrieval was performed using a Decloaking Chamber NxGen Biocare and the 110° C. program with Diva Retrieval solution. Slides were stained on the IntelliPath Automated stainer per the following protocol: Remove hot containers from the decloaking chamber and rinse in deionized water. Place slides in TBST prior to adding to IntelliPath. Hydrate slides on stainer prior to automation Add 300 uL/slide Peroxidaze (Biocare #PX968) and incubate 10 minutes. Wash slides in TBST. Add 300 uL/slide Sniper block (Biocare #B5966) and incubate 10 minutes. Blot off blocking solution. Add 300 uL/slide primary antibody and incubate 1 hour. Wash slides twice in TBST. Add 300 uL/slide HRP polymer and incubate 30 minutes. Wash slides twice in TBST. Add 300 uL/slide DAB (Vector #sk-4103) and incubate 5 minutes. Wash in TBST. Add 300 uL/slide hematoxylin and incubate 2 minutes. Wash in deionized water. Dehydrate slides by placing them in the oven for 30 minutes. Place coverslip on slides. Images were analyzed using Halo image analysis software (Indica Labs). The H-score was calculated according to the following equation: (3×% Strong Signal)+(2×% Moderate Signal)+(Weak Signal). […]

“SGN-B7H4V: ADC of fully human IgG1 anti-B7-H4 mAb conjugated to monomethyl auristatin E (MMAE) via a protease-cleavable valine-citrulline linker (vedotin)” was tested, and the “PDX models with antitumor activity” value (HR+ BC PDX models; HR+ BC, 3 mg/kg, 3 weekly doses) was “⅙”, the “% TGI” value (HR+ BC PDX models; HR+ BC_1, Day 38) was 7% and the “% TGI” value (HR+ BC PDX models; HR+ BC_2, Day 34) was 79%. The “% TGI” value (HR+ BC PDX models; HR+ BC_3, Day 16) was 28%, the “% TGI” value (HR+ BC PDX models; HR+ BC_4, Day 59) was 12% and the “% TGI” value (HR+ BC PDX models; HR+ BC_5, Day 59) was 11%. For the same substance, the “% TGI” value (HR+ BC PDX models; HR+ BC_6, Day 62) was 16%, the “anti-tumor activity (tumor volume)” value (MX-1 xenograft model) was “regression of tumor volumes in all mice” and the “mice with sustained regression” value (MX-1 xenograft model) was 4 of the 5. For the same substance, the “impact on tumor B7-H4 expression” value [1] was “did not have a significant impact”.
